Measured values: patent publication US12173018B2, “Penicillin-binding protein inhibitors” (priority 2018, dated 2024)
In brackets after ≈: the same amount, converted by molar mass. Read-outs that look alike come from different tables or passages of the source.

Legend:
[1] = tested on: N. gonorrhoeae WHO F; test: Liquid broth MIC, N. gonorrhoeae WHO F; format: cell-based; details: Neisseria gonorrhoeae; N. gonorrhoeae WHO F, liquid broth; read-out: Minimum Inhibitory Concentration, N. gonorrhoeae WHO F
Outline: (§1)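 MIC taken by eye as the lowest well lacking growth after 40-42 h at 36° C under 5% CO2. Compounds were 2-fold serially diluted; the starting inoculum of 5×10^5 CFU/mL came from direct colony suspensions grown on Kellogg's-supplemented GC agar.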

[2] = tested on: E. coli AG100; test: Broth microdilution MIC, E. coli AG100 (wild-type parent); format: cell-based; details: Escherichia coli; wild-type parent E. coli AG100, broth microdilution; read-out: MIC E. coli AG100
Outline: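 Broth microdilution in cation-supplemented Mueller-Hinton broth, 2-fold serial compound dilutions, inoculum 5×10^5 CFU/mL from 3-5 h log culture.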

[3] = tested on: N. gonorrhoeae ATCC 49226; test: Liquid broth MIC, N. gonorrhoeae ATCC 49226; format: cell-based; details: Neisseria gonorrhoeae, ATCC49226; N. gonorrhoeae ATCC 49226, liquid broth; read-out: Minimum Inhibitory Concentration, N. gonorrhoeae ATCC 49226
Outline: as §1

[4] = tested on: E. coli ATCC 25922; test: Broth microdilution MIC, E. coli ATCC 25922; format: cell-based; details: Escherichia coli
Outline: (§2)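 CLSI broth microdilution in cation-supplemented Mueller-Hinton broth; 2-fold compound dilutions inoculated at 5×10^5 CFU/mL from a 3-5 h log-phase culture. Plates incubated 16-20 hours at 37° C; MIC read visually as lowest concentration with no growth.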

[5] = tested on: N. gonorrhoeae FA1090; test: Liquid broth MIC, N. gonorrhoeae FA1090; format: cell-based; details: Neisseria gonorrhoeae; N. gonorrhoeae FA1090, liquid broth; read-out: Minimum Inhibitory Concentration, N. gonorrhoeae FA1090
Outline: as §1

[6] = tested on: K. pneumoniae 848844; test: microbe, parasite or virus in culture; format: cell-based, Klebsiella pneumoniae; details: Klebsiella pneumoniae; K. pneumoniae 848844 producing SHV-11 and KPC-2; read-out: MIC K. pneumoniae 848844
Outline: as §2

[7] = ATCC25922, E. coli ATCC 25922, broth microdilution, read-out: MIC E. coli 25922

Structure (SMILES) | MIC [1] | MIC [2] | MIC [3] | MIC [4, 7] | MIC [5] | MIC [6] | MIC ([4]; ATCC25922, read-out: MIC E. coli 25922)
CCN1CCN(C(=O)NC(C(=O)N[C@H]2Cc3ccc(F)c(C(=O)O)c3OB2O)c2ccc(O)c(O)c2F)C(=O)C1=O (stereo partly drawn) [Example 149, (3R)-3-(2-(4-ethyl-2,3-dioxopiperazine-1-carboxamido)-2-(2-fluoro-3,4-dihydroxyphenyl)acetamido)-7-fluoro-2-hydroxy-3,4-dihydro-2H-benzo[e][1,2]oxaborinine-8-carboxylic acid] | < 0.125 µg/mL | 2 to 4 µg/mL | 1 to 2 µg/mL (≈ 1.74 to 3.47 µM) | 8 to 16 µg/mL | 0.25 to 0.5 µg/mL (≈ 0.434 to 0.868 µM) | 2 to 4 µg/mL | –
CCN1CCN(C(=O)NC(C(=O)N[C@H]2Cc3cccc(C(=O)O)c3OB2O)c2ncc(O)cc2Cl)C(=O)C1=O (stereo partly drawn) [Example 150, (3R)-3-(2-(4-ethyl-2,3-dioxopiperazine-1-carboxamido)-2-(3-chloro-5-hydroxypyridin-2-yl)acetamido)-2-hydroxy-3,4-dihydro-2H-benzo[e][1,2]oxaborinine-8-carboxylic acid] | 0.25 to 0.5 µg/mL (≈ 0.447 to 0.893 µM) | 32 to 64 µg/mL | 4 to 8 µg/mL (≈ 7.15 to 14.3 µM) | 32 to 64 µg/mL | 0.25 to 0.5 µg/mL (≈ 0.447 to 0.893 µM) | > 128 µg/mL | –
CCN1CCN(C(=O)NC(C(=O)N[C@H]2Cc3ccc(F)c(C(=O)O)c3OB2O)c2ncc(O)cc2F)C(=O)C1=O (stereo partly drawn) [Example 145, (3R)-3-(2-(4-ethyl-2,3-dioxopiperazine-1-carboxamido)-2-(3-fluoro-5-hydroxypyridin-2-yl)acetamido)-7-fluoro-2-hydroxy-3,4-dihydro-2H-benzo[e][1,2]oxaborinine-8-carboxylic acid] | < 0.125 µg/mL | 8 to 16 µg/mL | 0.25 to 0.5 µg/mL (≈ 0.445 to 0.891 µM) | 8 to 16 µg/mL | < 0.125 µg/mL | 32 to 64 µg/mL | –
CCN1CCN(C(=O)NC(C(=O)N[C@H]2Cc3cccc(C(=O)O)c3OB2O)c2ccc(C(=O)O)cc2)C(=O)C1=O (stereo partly drawn) [Example 212, (3R)-3-(2-(4-carboxyphenyl)-2-(4-ethyl-2,3-dioxopiperazine-1-carboxamido)acetamido)-2-hydroxy-3,4-dihydro-2H-benzo[e][1,2]oxaborinine-8-carboxylic acid] | < 0.125 µg/mL | 32 to 64 µg/mL | 0.25 to 0.5 µg/mL (≈ 0.453 to 0.905 µM) | – | < 0.125 µg/mL | > 128 µg/mL | 32 to 64 µg/mL
CCN1CCN(C(=O)NC(C(=O)N[C@H]2Cc3ccc(F)c(C(=O)O)c3OB2O)c2ccc(O)c(O)c2Cl)C(=O)C1=O (stereo partly drawn) [Example 124, (3R)-3-(2-(2-chloro-3,4-dihydroxyphenyl)-2-(4-ethyl-2,3-dioxopiperazine-1-carboxamido)acetamido)-7-fluoro-2-hydroxy-3,4-dihydro-2H-benzo[e][1,2]oxaborinine-8-carboxylic acid] | < 0.125 µg/mL | 0.5 to 1 µg/mL | 1 to 2 µg/mL (≈ 1.69 to 3.37 µM) | 8 to 16 µg/mL | 1 to 2 µg/mL (≈ 1.69 to 3.37 µM) | > 128 µg/mL | –
CCN1C[C@@H](C)N(C(=O)NC(C(=O)N[C@H]2Cc3cccc(C(=O)O)c3OB2O)c2ncc(O)cc2F)C(=O)C1=O (stereo partly drawn) [Example 191, (3R)-3-(2-((R)-4-ethyl-6-methyl-2,3-dioxopiperazine-1-carboxamido)-2-(3-fluoro-5-hydroxypyridin-2-yl)acetamido)-2-hydroxy-3,4-dihydro-2H-benzo[e][1,2]oxaborinine-8-carboxylic acid] | 1 to 2 µg/mL (≈ 1.79 to 3.59 µM) | > 128 µg/mL | > 64 µg/mL | > 128 µg/mL | 0.25 to 0.5 µg/mL (≈ 0.449 to 0.897 µM) | > 128 µg/mL | –
CC(=O)NCCN1CCN(C(=O)NC(C(=O)N[C@H]2Cc3cccc(C(=O)O)c3OB2O)c2ccc(O)c(O)c2Cl)C(=O)C1=O (stereo partly drawn) [Example 228, (3R)-3-(2-(4-(2-acetamidoethyl)-2,3-dioxopiperazine-1-carboxamido)-2-(2-chloro-3,4-dihydroxyphenyl)acetamido)-2-hydroxy-3,4-dihydro-2H-benzo[e][1,2]oxaborinine-8-carboxylic acid] | 4 to 8 µg/mL (≈ 6.33 to 12.7 µM) | 2 to 4 µg/mL | > 64 µg/mL | 8 to 16 µg/mL | 1 to 2 µg/mL (≈ 1.58 to 3.17 µM) | 2 to 4 µg/mL | –
CCNC(=O)NCCN1CCN(C(=O)NC(C(=O)N[C@H]2Cc3cccc(C(=O)O)c3OB2O)c2ccc(O)c(O)c2Cl)C(=O)C1=O (stereo partly drawn) [Example 235, (3R)-3-(2-(2-chloro-3,4-dihydroxyphenyl)-2-(4-(2-(3-ethylureido)ethyl)-2,3-dioxopiperazine-1-carboxamido)acetamido)-2-hydroxy-3,4-dihydro-2H-benzo[e][1,2]oxaborinine-8-carboxylic acid] | 1 to 2 µg/mL (≈ 1.51 to 3.03 µM) | 8 to 16 µg/mL | > 64 µg/mL | 32 to 64 µg/mL | 1 to 2 µg/mL (≈ 1.51 to 3.03 µM) | 2 to 4 µg/mL | –
O=C(O)c1c(F)ccc2c1OB(O)[C@@H](NC(=O)C(NC(=O)N1CCN(CCF)C(=O)C1=O)c1ccc(O)c(O)c1Cl)C2 (stereo partly drawn) [Example 131] | 0.25 to 0.5 µg/mL (≈ 0.409 to 0.819 µM) | 8 to 16 µg/mL | 4 to 8 µg/mL (≈ 6.55 to 13.1 µM) | 2 to 4 µg/mL | 0.25 to 0.5 µg/mL (≈ 0.409 to 0.819 µM) | 32 to 64 µg/mL | –
NCCCN1CCN(C(=O)NC(C(=O)N[C@H]2Cc3cccc(C(=O)O)c3OB2O)c2ccc(O)c(O)c2Cl)C(=O)C1=O (stereo partly drawn) [Example 233, (3R)-3-(2-(4-(3-aminopropyl)-2,3-dioxopiperazine-1-carboxamido)-2-(2-chloro-3,4-dihydroxyphenyl)acetamido)-2-hydroxy-3,4-dihydro-2H-benzo[e][1,2]oxaborinine-8-carboxylic acid] | 4 to 8 µg/mL (≈ 6.62 to 13.2 µM) | 0.5 to 1 µg/mL | > 64 µg/mL | 8 to 16 µg/mL | 1 to 2 µg/mL (≈ 1.66 to 3.31 µM) | 2 to 4 µg/mL | –
CCN1CCN(C(=O)NC(C(=O)N[C@H]2Cc3ccc(F)c(C(=O)O)c3OB2O)c2ncc(O)cc2Cl)C(=O)C1=O (stereo partly drawn) [Example 151, (3R)-3-(2-(3-chloro-5-hydroxypyridin-2-yl)-2-(4-ethyl-2,3-dioxopiperazine-1-carboxamido)acetamido)-7-fluoro-2-hydroxy-3,4-dihydro-2H-benzo[e][1,2]oxaborinine-8-carboxylic acid] | < 0.125 µg/mL | 32 to 64 µg/mL | 1 to 2 µg/mL (≈ 1.73 to 3.46 µM) | > 128 µg/mL | 0.25 to 0.5 µg/mL (≈ 0.433 to 0.865 µM) | > 128 µg/mL | –
CS(=O)(=O)NCCN1CCN(C(=O)NC(C(=O)N[C@H]2Cc3cccc(C(=O)O)c3OB2O)c2ccc(O)c(O)c2Cl)C(=O)C1=O (stereo partly drawn) [Example 229, (3R)-3-(2-(2-chloro-3,4-dihydroxyphenyl)-2-(4-(2-(methylsulfonamido)ethyl)-2,3-dioxopiperazine-1-carboxamido)acetamido)-2-hydroxy-3,4-dihydro-2H-benzo[e][1,2]oxaborinine-8-carboxylic acid] | 4 to 8 µg/mL (≈ 5.99 to 12 µM) | 2 to 4 µg/mL | > 64 µg/mL | 8 to 16 µg/mL | 4 to 8 µg/mL (≈ 5.99 to 12 µM) | 2 to 4 µg/mL | –
NCCN1CCN(C(=O)N[C@@H](C(=O)N[C@H]2Cc3cccc(C(=O)O)c3OB2O)c2ncc(O)cc2F)C(=O)C1=O [Example 225, (R)-3-((R)-2-(4-(2-aminoethyl)-2,3-dioxopiperazine-1-carboxamido)-2-(3-fluoro-5-hydroxypyridin-2-yl)acetamido)-2-hydroxy-3,4-dihydro-2H-benzo[e][1,2]oxaborinine-8-carboxylic acid] | 0.25 to 0.5 µg/mL (≈ 0.448 to 0.896 µM) | 8 to 16 µg/mL | 16 to 32 µg/mL (≈ 28.7 to 57.3 µM) | 8 to 16 µg/mL | 0.25 to 0.5 µg/mL (≈ 0.448 to 0.896 µM) | 32 to 64 µg/mL | –
O=C(O)c1cccc2c1OB(O)[C@@H](NC(=O)C(NC(=O)N1CCN(CCF)C(=O)C1=O)c1ccc(B(O)O)cc1)C2 (stereo partly drawn) [Example 113, (3R)-3-(2-(4-boronophenyl)-2-(4-(2-fluoroethyl)-2,3-dioxopiperazine-1-carboxamido)acetamido)-2-hydroxy-3,4-dihydro-2H-benzo[e][1,2]oxaborinine-8-carboxylic acid] | < 0.125 µg/mL | 32 to 64 µg/mL | 1 to 2 µg/mL (≈ 1.75 to 3.51 µM) | 32 to 64 µg/mL | < 0.125 µg/mL | > 128 µg/mL | –
